# From patent US9902725B2, “Heterocyclic derivatives as RORgamma modulators” (GENFIT, priority 2014, dated 2018)
# Key:
# MOG-induced EAE mice = assay: MOG-induced EAE in mice, clinical score; format: in vivo
# Procedure: 8-10 week old, male C57BL/6 mice were purchased from Janvier Lab (St Berthevin, France) and housed in a specific pathogen free (SPF) animal facility for one week before the start of the studies. Peptide antigen MOG35-55 (Myelin Oligodendrocyte Glycoprotein) ([…], SEQ ID NO:1, Polypeptide group, France) was dissolved in PBS and emulsified with an equal volume of Complete Freund's Adjuvant (CFA) containing 5 mg/mL of mycobacteria and administrated by subcutaneous injection at the dorsal flanks on day 0 at 200 μg/mouse. To ensure induction of reliable EAE, 200 ng of Bordetella pertussis toxin (Sigma) was given via intraperitoneal injection at day 0 and 2 (Cua, Sherlock et al. 2003; Zhang, Gran et al. 2003). Animals were treated with drug beginning 2 days before peptide injection. Animals were randomized into groups for treatment by weight, so that the average weight of each group was similar. The groups were segregated by cage. Compounds according to the invention were suspended in Carboxymethyl Cellulose (CMC) 1% (Sigma) and Tween80 0.1% (Sigma) by sonication and animals were dosed daily by gavage with 10 mL/kg body weight. The daily dose of Cpd. 1 was 30 mg/kg and vidofludimus (reference compound) at 60 mg/kg in protocol 1 to assess IL-17 A and IL-17F secretion from splenocytes ex vivo. In protocol 2, mice were treated with Cpd. 1 at 3 and 10 mg/Kg or T4 compound at 1 and 10 mg/kg daily by gavage to assess the clinical score. Clinical assessment of EAE was performed daily according to the following criteria: 0) no disease, 1) limp tail, 2) weak/partially paralyzed hind legs, 3) completely paralyzed hind legs, 4) complete hind and partial front leg paralysis, and 5) complete paralysis/death. For Cytokine quantifications, mice were euthanized 20 days after EAE induction. Spleen-isolated cells were collected and adjusted to 2×10^6 cells/mL. Cells were cultured in complete RPMI medium (RPMI supplemented with 10% of fetal calf serum, 1% glutamine, and 1% penicillin/streptomycin). Spleen cells were stimulated with MOG (20 μg/mL) (Polypeptide group, France). Cytokine levels were evaluated 48 h later by ELISA (R&D Systems Europe) or HTRF (CisBio, France) in culture supernatants using IL-17A and IL-17-F according to the manufacturer's protocols. The statistical significance was based on Student's t test (p<0.05, unpaired test).
# human RORγt = molecular target: T1, human RORγt (Homo sapiens, UniProt P51449); assay: RORE luciferase/RORγt transactivation assay; format: cell-based; design: expressed in transfected cells; conditions: COS-7 cells transfected with IL-17 promoter luciferase reporter and RORγt plasmid, 20 h
# T1 sequence (P51449 1-497 isoform P51449-2): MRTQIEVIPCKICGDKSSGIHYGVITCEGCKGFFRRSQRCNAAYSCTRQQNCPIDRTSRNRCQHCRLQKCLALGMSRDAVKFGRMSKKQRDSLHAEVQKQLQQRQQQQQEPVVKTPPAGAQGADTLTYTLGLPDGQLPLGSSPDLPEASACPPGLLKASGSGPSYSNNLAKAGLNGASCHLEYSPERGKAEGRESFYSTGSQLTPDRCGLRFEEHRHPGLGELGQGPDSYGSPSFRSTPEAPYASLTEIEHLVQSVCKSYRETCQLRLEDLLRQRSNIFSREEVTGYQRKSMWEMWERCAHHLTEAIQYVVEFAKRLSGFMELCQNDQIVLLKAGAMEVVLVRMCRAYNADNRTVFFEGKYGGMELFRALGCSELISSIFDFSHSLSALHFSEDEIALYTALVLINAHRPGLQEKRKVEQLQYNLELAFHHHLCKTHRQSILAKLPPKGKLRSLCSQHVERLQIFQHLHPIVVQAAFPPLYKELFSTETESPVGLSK
# Excerpt: It is well known that RORγ binds to a conserved non-coding sequence (CNS) enhancer element in the IL-17 promoter. Accordingly, we have used in this assay a luciferase reporter gene construct that contains the human IL-17 promoter fragment with RORγ-specific CNS enhancer element and a RORγt overexpressing plasmid, to indirectly assess the effect of compounds on RORγ activity. Inhibition of RORγ activity by test compounds will result in a decrease in luciferase activity in COS-7 cells transfected with the reporter construct.
# Monkey Kidney COS-7 cell line are maintained in a standard culture medium Dulbecco's modified Eagle's minimal (DMEM) medium supplemented with 10% fetal calf serum, 1% sodium pyruvate, 1% essential amino acids and 1% antibiotics at 37° C. in a humidified atmosphere of 5% CO2 and 95% air. Culture medium was changed every 2 days.
# The 4.3 Kb human IL-17 promoter containing the RORγ-specific CNS enhancer element was PCR amplified from human genomic DNA and cloned into a pGL3-TKLuc2Cp reporter plasmid. To overexpress RORγt, the full-length cDNA of human RORγt (identical to published sequence NM 001001523) was cloned without any restriction into pcdna3.1DV5-His-topo to generate the RORγt overexpression plasmid “RORγt_FL_h_pcDNA3.1DV5-His-TOPO_1”.
# The luciferase reporter plasmid and the RORγt overexpression plasmid were transfected into COS-7 cell line using 4 μLJetPEITM/μg of DNA. Briefly, 150 ng of DNA (ration ½ between RORE-Tk Luc2Cp and cDNA RORγt or the empty vector for the negative control) was served to transfect adherent COS-7 cells in a […] culture flask, in complete medium (see cos-7 cell line culture). Cells were incubated for 24 hours in a humidified atmosphere of 5% CO2 and 95% air
# Cells were then detached (using trypsin) and washed by centrifugation at 300 g for 10 minutes. Cell pellet was resuspended in serum free/phenol red free DMEM and seeded in 384 well plates at a density of 10000 cells/well and then incubated for 4 h at 37° C.
# Compounds were dissolved in 100% DMSO to obtain 10 mM stock solutions. For each compound, test concentrations were diluted in serum free/phenol red free DMEM using the Genesis Freedom 200™ (TECAN) and added to the cells to obtain a 0.3% DMSO final concentration (in a final volume of 40 μL per well). T091317 was used as reference compound. Cells were incubated in presence of compounds for an additional 20 h at 37° C. in a humidified atmosphere of 5% CO2 and 95% air
# The luciferase activity was then measured with 40 μL/well steady-Glo Luciferase assay system (Promega, Madison, Wis.) and after incubation at room temperature for 30 minutes. The luminescence was estimated using the Ultra384 reader (TECAN). Data were collected and analyzed using GraphPad Prism software (GraphPad Software V5.02, San Diego Calif. USA). IC50 in μM and Emax in % were reported for each compound.
Compound,onset of EAE (MOG-induced EAE mice; administered p/os (orally) for 20 days),"EAE clinical score (MOG-induced EAE mice; daily by gavage, Cpd. 1 at 3 and 10 mg/Kg, T4 compound at 1 and 10 mg/kg)",IC50 (human RORγt) [nM]
"O=C(O)CCc1c[nH]c2ccc(CC(=O)NC(c3ccccc3)c3ccccc3N3CCCCC3)cc12 (stereo not drawn) [Cpd. 1, 3-{5-[({phenyl[2-(piperidin-1-yl)phenyl]methyl}carbamoyl)methyl]-1H-indol-3-yl}propanoic acid]",able to delay the onset of EAE,improvement was apparent,< 1000
"O=C(O)CCc1c[nH]c2ccc(CC(=O)NC(c3cccc(F)c3)c3ccccc3N3CCCCC3)cc12 (stereo not drawn) [Cpd. 3, 3-[5-({[(3-fluorophenyl)[2-(piperidin-1-yl)phenyl]methyl]carbamoyl}methyl)-1H-indol-3-yl]propanoic acid]",–,–,< 1000
"Cc1ccc(C(NC(=O)Cc2ccc3[nH]cc(CCC(=O)O)c3c2)c2ccccc2)c(N2CCCC2)c1 (stereo not drawn) [Cpd. 5, 3-{5-[({[4-methyl-2-(pyrrolidin-1-yl)phenyl](phenyl)methyl}carbamoyl)methyl]-1H-indol-3-yl}propanoic acid]",–,–,< 1000
"CC(C)CC(NC(=O)Cc1ccc2[nH]cc(CCC(=O)O)c2c1)c1ccccc1N1CCCCC1 (stereo not drawn) [Cpd. 29, 3-{5-[({3-methyl-1-[2-(piperidin-1-yl)phenyl]butyl}carbamoyl)methyl]-1H-indol-3-yl}propanoic acid]",–,–,< 1000
